Assay results published in US20130158070A1, “CONJUGATES OF POLYUNSATURATED FATTY ACIDS AND AMINE-CONTAINING COMPOUNDS AND USES THEREOF” (priority 2010, published 2013).

Legend:
[1] = target: T1, COX-2 (Homo sapiens, UniProt P35354); test: COX-2 inhibition, enzyme immunoassay (EIA); assay type: biochemical; conditions: ratio of COX-1 IC50 to COX-2 IC50
T1 sequence (P35354 18-604): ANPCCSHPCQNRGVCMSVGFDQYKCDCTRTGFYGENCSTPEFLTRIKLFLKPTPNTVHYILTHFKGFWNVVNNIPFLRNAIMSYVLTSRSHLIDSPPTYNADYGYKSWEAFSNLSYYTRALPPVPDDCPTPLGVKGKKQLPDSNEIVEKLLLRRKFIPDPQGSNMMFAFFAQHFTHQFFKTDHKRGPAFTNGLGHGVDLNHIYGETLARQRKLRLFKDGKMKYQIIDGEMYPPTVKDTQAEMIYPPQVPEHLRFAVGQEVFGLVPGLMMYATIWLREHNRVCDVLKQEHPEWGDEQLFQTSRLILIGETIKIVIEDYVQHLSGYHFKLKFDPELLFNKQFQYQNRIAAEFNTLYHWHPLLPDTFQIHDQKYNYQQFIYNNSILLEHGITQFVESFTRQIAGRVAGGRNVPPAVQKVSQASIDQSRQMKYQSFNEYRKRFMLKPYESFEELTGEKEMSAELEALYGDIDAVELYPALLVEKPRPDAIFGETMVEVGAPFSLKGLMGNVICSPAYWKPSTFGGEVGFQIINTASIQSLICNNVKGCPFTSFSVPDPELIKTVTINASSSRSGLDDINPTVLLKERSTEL
Description: Exemplary conjugates as described herein were tested in vitro for inhibition of COX-1 and COX-2, using an enzyme immunoassay (EIA), as follows.
Cyclooxygenase catalyzes the first step in the biosynthesis of arachidonic acid (AA) to PGH2. PGF2α, produced from PGH2 by reduction with stannous chloride, is measured by enzyme immunoassay (ACETM competitive EIA).
Stock solutions of test compounds were dissolved in a minimum volume of DMSO. Briefly, to a series of supplied reaction buffer solutions (960 μl, 0.1M Tris-HCl pH 8.0 containing 5 mM EDTA and 2 mM phenol) with either COX-1 or COX-2 (10 μl) enzyme in the presence of heme (10 μl) were added 10 μl of various concentrations of test drug solutions (0.01, 0.1, 1, 10, 50, and 100 μM in a final volume of 1 ml). These solutions were incubated for a period of 5 minutes at 37° C. after which 10 μL of AA (100 μM) solution were added and the COX reaction was stopped by the addition of 50 μl of 1M HCl after 2 minutes. PGF2α, produced from PGH2 by reduction with stannous chloride was measured by enzyme immunoassay.
This assay is based on the competition between PGs and a PG-acetylcholinesterase conjugate (PG tracer) for a limited amount of PG antiserum. The amount of PG tracer that is able to bind to the PG antiserum is inversely proportional to the concentration of PGs in the wells since the concentration of PG tracer is held constant while the concentration of PGs varies. The concentration of the test compound causing 50% inhibition (IC50, μM) was calculated from the concentration-inhibition response curve (duplicate determinations).

[2] = test system: collagen induced arthritis; test: Collagen induced arthritis (CIA), arthritis score, paw thickness, body weight; assay type: in vivo, DBA/1J mice; conditions: 50 mg/kg IP; for day from which arthritis score (AS) increases: 3 times a week, 12 administrations; for CIA development: overall conclusion; for arthritis thickness index (ATI) increase: from day 0 to day 70, groups 1M DHA-Tau, 2M DHA, 4M Ibuprofen
Description: In a different study, 34 male 8-10 weeks old DBA/1J mice were used. Animals were fed ad libitum a commercial rodent diet (Teklad Certified Global 18% Protein Diet cat #: 106S8216). Animals had free access to acidified drinking water (pH between 2.5 and 3.0) obtained from the municipality supply.
The effect of MWL-002 (conjugate of DHA and taurine) was tested and compared to that of Ibuprofen. Cremophore EL was used as a vehicle.
On day 0, each mouse was anesthetized by inhalation of 3% isofluorane and injected intradermally at the base of the tail with 0.1 ml of emulsion containing 100 μg collagen, using a 1-ml glass syringe with a 26-guade needle. Booster injection was performed at day 15 to the same injection site.
The tested materials were administered 3 times a week, via IP for a total of 12 administrations starting on day 1.
Observations for clinical score were performed twice weekly until study termination.
The severity of arthritis was scored based on the level of inflammation in each of the four paws and recorded as one of five grades according to the following:
Hind paw thickness (edema) was measured by digital caliper once a week until Day 14 and thereafter twice weekly and prior to study termination. Two cross sectional areas were marked, one on the paw and the other at the ankle (tarsal joint). Two measurements were made on each section, perpendicular to each other. The results obtained were calculated as the average areas of both hind limbs per animal.
Body weight was measured prior to dosing, during the study twice a week and prior to study termination.

[3] = test system: DNBS-induced colitis; test: DNBS-induced experimental colitis in mice, oral administration; assay type: in vivo; conditions: day four after DNBS, MWL001 50 mg/kg oral daily
Description: In this study, the effect of MWL001 on pro-inflammatory mediators in DNBS-induced experimental colitis in mice was evaluated. In particular it was observed that there was no expression of TNF-α, CD4, TGF-13, CD25 in the colon tissue from sham-treated mice. MWL001 and DEX were administered orally and daily starting at six hours after the DNBS challenge.
Colitis was induced with a very low dose of 2,4-dinitrobenzene sulfonic acid (DNBS) (4 mg per mouse) by using a modification of the method first described in mice. […] Mice were anesthetized by Enflurane. DNBS (4 mg in 100 μl of 50% ethanol) was injected into the rectum through a catheter inserted 4.5 cm proximally to the anus. The carrier alone (100 μl of 50% ethanol) was administered in control experiments. Thereafter, the animals were kept for 15 minutes in a Trendelenburg position to avoid reflux. […] On Day four, the animals were weighed and anaesthetized with chloral hydrate, and their abdomen was opened by a midline incision. The colon was removed, freed from surrounding tissues, opened along the antimesenteric border and processed for histology.
TNF-α and IL-6 levels were evaluated and colon tissues collected at four days after DNBS administration. Briefly, portions of terminal colon were homogenized as previously described in phosphate-buffered saline (PBS, ICN Biomedicals, Milan, Italy) containing two mmol/L of phenyl-methyl sulfonyl fluoride (PMSF, Sigma Chemical Co.). The assay was carried out using a colorimetric, commercial kit (R&D system Milan, Italy) according to the manufacturer instructions. All cytokines determinations were performed in duplicate serial dilutions.
At four days after DNBS administration, colon tissues were fixed in 10% (w/v) PBS-buffered formaldehyde and 7 μm sections were prepared from paraffin embedded tissues. After deparaffinization, endogenous peroxidase was quenched with 0.3% (v/v) hydrogen peroxide in 60% (v/v) methanol for 30 min. The sections were permeabilized with 0.1% (w/v) Triton X-100 in PBS for 20 min. Non-specific adsorption was minimized by incubating the section in 2% (v/v) normal goat serum in PBS for 20 min. Endogenous biotin or avidin binding sites were blocked by sequential incubation for 15 min with biotin and avidin (Vector Laboratories, Burlingame, Calif.), respectively. Sections were incubated overnight with: 1) purified polyclonal antibody directed towards CD4 (Santa Cruz Biotechnology, 1:500 in PBS, v/v) or 2) with purified anti-CD25 (Santa Cruz Biotecnology 1:500 in PBS, w/v) or 3) with anti- TNF-α polyclonal antibody (Santa Cruz Biotechnology, N-19:sc-1350, 1:500 in PBS, v/v) or 4) with anti-TGF-β polyclonal antibody (Santa Cruz, 1:500 in PBS, v/v).
Sections were washed with PBS, and incubated with a secondary antibody. Specific labelling was detected with a biotin-conjugated goat anti-rabbit IgG and avidin-biotin peroxidase complex (Vector Laboratories, Burlingame, Calif.).

[4] = test system: oxazolone-induced allergic dermatitis; test: Murine oxazolone-induced allergic dermatitis; assay type: in vivo, mice; conditions: hematoxylin and eosin stained sections
From the text: An allergic form of contact dermatitis can be induced in mice by repeated epicutaneous application of the chemical sensitizer oxazolone. This leads to local augmented thickness and weight increase of the skin area where the rechallenge was applied; from the histological point of view, oxazolone-induced dermatitis is characterized by severe mononuclear cell infiltration of the dermis with in situ production of the type 1 proinflammatory cytokines TNF-alpha, IL-1alpha and IFN-gamma. These well-defined mechanistic pathways of inflammatory skin damage make oxazolone-dermatitis a useful in vivo tool for pathogenic studies and a pharmacodynamic parameter to screen drugs of potential utility in counteracting type 1 cytokine dependent cutaneous immunoinflammatory responses such as those found in some forms of bullous disorders, cutaneous vasculitis and psoriasis.
The efficacy of MWL001 in the treatment of Murine oxazolone-induced allergic dermatitis was evaluated. MWL001 and DEX were administered one hour after the second challenge with oxazolone.
The mice were sensitized on day 0 by a single application of 10 ∞l of 2% oxazolone (Sigma Chimica, Milan, Italy) in ethanol to the inner and outer surface of the left ear. The disease was elicited by local rechallenge on day 7 with 15% oxazolone. The right ear was treated with the vehicle of oxazolone (acetone). Eighteen hours after […] the mice are sacrificed under ether anesthesia and both the right and left ears were excised.
Inflammation was assessed as the percentage increase in ear thickness and/or ear weight in the treated left ear vs. the vehicle-treated right ear. Ear thickness was measured with a digital calliper. The extent of the inflammation was quantified as follows: ear swelling (%)=100×(a−b)/b, where a is thickness/weight of the left (treated) ear and b is the thickness/weight of the right (untreated) ear.
Ear tissue samples were fixed with 4% formaldehyde in phosphate-buffered saline (PBS) and embedded in paraffin. Thereafter, 6-μm sections were deparaffinized with xylene, stained with hematoxylin-eosin and observed with a Zeiss microscope (Jena, Germany).

## CCCCCCCC/C=C\CCCCCCCC(=O)n1cc(CC(=O)O)c2cc(O)ccc21 [MWL-007, N-oleoyl-5-hydroxy-indol-3-yl-acetic acid]
[1]
  Ratio (COX ½): 15.83

## CC(C)Cc1ccc(C(C)C(=O)O)cc1 (centres unmarked) [Ibuprofen]
[2]
  day from which arthritis score (AS) increases: 40 days
  CIA development: not substantially effective
  arthritis thickness index (ATI) increase: 190%

## CC/C=C\C/C=C\C/C=C\C/C=C\C/C=C\C/C=C\CCC(=O)O [DHA, all-cis-4,7,10,13,16,19-docosahexaenoic acid]
[2]
  day from which arthritis score (AS) increases: 40 days
  CIA development: not substantially effective
  arthritis thickness index (ATI) increase: 180%

## C[C@@H]1C[C@H]2[C@@H]3CCC4=CC(=O)C=C[C@]4(C)[C@@]3(F)[C@@H](O)C[C@]2(C)[C@@]1(O)C(=O)CO [DEX, dexamathasone, reference compound]
[3]; colorimetric kit
  IL-6 colon levels: significant reduction
  TNF-α colon levels: significant reduction
[3]; immunostaining
  expression of CD4 in colon tissue: significantly reduced
  expression of CD25 in colon tissue: significantly reduced
  expression of TGF-β in colon tissue: significantly reduced
  expression of TNF-α in colon tissue: significantly reduced
[4]
  histology: ear thickness and inflammatory cells in epidermis and dermis: markedly reduced
